In patent US7371776B2, “Methods and compositions for treating cancer” (Mars, Incorporated, priority 2004, dated 2008):

Assays:
Type in all cases: cell-based, human
PARP [1] = assay: PARP cleavage in MCF-7 cells; settings: 48 hours treatment
Excerpt: (§1) Rabbit polyclonal poly (ADP-ribose) polymerase (PARP) (H-250) was obtained from Santa Cruz Biotechnology Inc., (Santa Cruz, Calif.). α-Tubulin antibody was obtained from Neomarkers, Fremont, Calif. All antibodies used for proteomics analysis were obtained from Cell Signaling (Beverly, Mass.), Upstate Biotechnology (Lake Placid, N.Y.), Neomarkers (Fremont, Calif.) and Santa Cruz (Santa Cruz, Calif.) (Table 2). Referring to Table 2, Abs designated as “mouse” were monoclonal Abs, and Abs designated as “rabbit” were polyclonal Abs. The ECL detection reagent was obtained from Amersham (Arlington Heights, Ill.).
(§2) To determine whether depolarization of the mitochondrial membrane, induced by pentamer leads to apoptotic cellular death in human breast cancer cells lines, MDA MB-231 and MCF-7 cells were examined for PARP cleavage products. Since PARP is one of the downstream substrates of the caspase cascade, it is an excellent marker of apoptosis [Soldani, C. et al., Apoptosis, 7: 321-328, 2002].

MCF-10A cells = assay: Mitochondrial membrane potential depolarization (ApoAlert, flow cytometry)
Procedure: (§3) Mitochondrial membrane potential was determined using ApoAlert™ Mitochondrial Membrane Sensor Kit (Clonetech Inc., Palo Alto, Calif.). The MDA MB-231, MCF-7, MDA MB-468, MDA MB-436, SKBR-3, MCF-10A, MCF-10A-c-Myc and AIN4 cells were grown, in appropriate media, to 60-70% confluence in 25 cm^2 dishes. The following day, the complete media was replaced with complete media containing (i) pentamer (100 μg/mL, or in some cases with 25 μg/mL), (ii) media with DMSO, or (iii) media only. Initially, cells were grown in the presence of pentamer for 1, 2, 3, 6, 12 and 24 hrs but only 1, 2 and 6 hrs treatments were selected for subsequent studies. All floating and adherent cells were combined, and then the cells were aliquoted into flow cytometry tubes. Approximately, 1×10^6 cells per tube were analyzed, according to the manufacturer's instructions. Samples were analyzed at the Lombardi Comprehensive Cancer Center Core Flow Cytometry Shared Resource Facility.

MDA MB-231 cells = assay: as above
Procedure: as §3

MDA MB-468 cells = assay: as above
Procedure: as §3

SKBR-3 cells = assay: as above
Procedure: as §3

AIN4 cells = assay: as above
Procedure: as §3

MCF-7 cells = assay: as above; settings: several attempts, different passages
Procedure: as §3

MDA MB-436 cells = assay: as above
Procedure: as §3

PARP [2] = assay: PARP cleavage in MDA MB-231 cells; settings: 48 hours treatment
Excerpt: as §1, §2

PKC-θ at Ser 643/676 = assay: LPS multi-well plate phosphorylation screen in MDA MB-231 cells; settings: 100 μg/mL, 72 hrs
Excerpt: (§4) Layered Protein Scanning (LPS) is a method for screening liquid protein samples in a high throughput manner using multi-well plates [Englert, C. R. et al., Cancer Res., 60: 1526-1530, 2000], and conducted by 20/20 Gene Systems, Inc., (Rockville, Md.). In short, cells are lysed and protein extract loaded into the wells of vacuum manifold and transferred through a stack of membranes. From each set of samples, up to five dot blot membranes are generated.
(§5) MDA MB-231 human breast cancer cells were treated, with or without 100 μg/mL pentamer, for 48 and 72 hours. Cells were lysed in LPS/MWP lysis buffer (20/20 Gene Systems, Inc.). Protein concentration was determined using BCA Protein Assay Kit (Pierce, Rockford, Ill.). Ten and 20 μg of each protein sample was loaded in duplicate onto Bio-Dot Microfiltration Apparatus (BioRad, Philadelphia, Pa.) and transferred through a 5-membrane stack as recommended by the manufacturer (20/20 Gene Systems). After the transfer, all of the membranes were biotinylated in 1 mg/mL EZ-Link Sulfo-NHS-Biotin solution in 1×PBS for 10 minutes at room temperature (Pierce).
(§6) Membranes were incubated overnight at 4° C. with the antibodies shown in Table 1 (1:500 or 1:1000 dilution). The following day, membranes were washed in Tris-buffered saline with Tween 20 (0.1%) (TBST buffer) and incubated for 60 minutes at room temperature in a mixture of FluoroLink Cy 5-labeled Streptavidin (1:500, Amersham) and Fluorescein-labeled secondary anti-mouse or anti-rabbit antibody (1:2,000, Molecular Probes, Eugene, Oreg.), followed by washes in TBST. Membranes were dried and scanned on a Typhoon scanner (Amersham), and obtained images were analyzed with InageQuant software (Amersham). Data were plotted in Excel and statistically analyzed in JMP (SAS Institute, Inc., Cary, N.C.). Hierarchical clustering analysis was performed to evaluate segregation of samples into control and treated groups.

[3] = tested on: pRb at Ser 795 and Ser807/811; assay: as above; settings: 100 μg/mL
Excerpt: as §4, §5, §6

[4] = pentamer-treated, average of three experiments

SMILES: Oc1cc(O)c2c(c1)O[C@H](c1ccc(O)c(O)c1)[C@H](O)[C@H]2c1c(O)cc(O)c2c1O[C@H](c1ccc(O)c(O)c1)[C@H](O)[C@H]2c1c(O)cc(O)c2c1O[C@H](c1ccc(O)c(O)c1)[C@H](O)[C@H]2c1c(O)cc(O)c2c1O[C@H](c1ccc(O)c(O)c1)[C@H](O)[C@H]2c1c(O)cc(O)c2c1O[C@H](c1ccc(O)c(O)c1)[C@H](O)C2 [pentamer, pentameric procyanidin]
- cleaved PARP fragment (PARP [1]): no cleaved PARP fragment was detected
- full-length PARP (116 kDa) (PARP [1]): decrease
- MMP depolarization, Fold Increase over DMSO (MCF-10A cells): 2
- MMP depolarization (%) (MCF-10A cells; [4]): 20%
- MMP depolarization, Fold Increase over DMSO (MDA MB-231 cells): 14.5
- depolarization of mitochondrial membrane, time course (MDA MB-231 cells; 100 μg/mL, 1, 2 and 6 hours): time-dependent depolarization
- depolarization of mitochondrial membrane, dose response (MDA MB-231 cells; 25 and 100 μg/mL): dose-dependent response
- MMP depolarization (%) (MDA MB-231 cells; [4]): 58%
- MMP depolarization, Fold Increase over DMSO (MDA MB-468 cells): 5
- MMP depolarization (%) (MDA MB-468 cells; [4]): 60%
- MMP depolarization, Fold Increase over DMSO (SKBR-3 cells): 2.5
- MMP depolarization (%) (SKBR-3 cells; [4]): 25%
- MMP depolarization, Fold Increase over DMSO (AIN4 cells): 3.2
- MMP depolarization (%) (AIN4 cells; [4]): 20%
- depolarization of the mitochondrial membrane (MCF-7 cells): depolarization could not be demonstrated
- MMP depolarization, Fold Increase over DMSO (MDA MB-436 cells): 5.7
- MMP depolarization (%) (MDA MB-436 cells; [4]): 50%
- main band of PARP (cleavage) (PARP [2]): uncleaved
- phosphorylation of PKC-θ at Ser 643/676 decreased (PKC-θ at Ser 643/676): 49%
- phosphorylation of pRb at Ser 795 and Ser807/811 decreased ([3]; 48 hrs): 36%
- phosphorylation of pRb at Ser 795 and Ser807/811 decreased ([3]; 72 hrs): 40%
